Test [1] deals with Ras. The following applies: Hancock et al.; Casey et al.; Schafer et al.; cited from earlier work.
Test [2] has as its target T1, Squalene Synthase (Rattus norvegicus, UniProt Q02769).
T1 construct: from tissue; host or cells: rat liver microsomes (male Charles River CD rats, fed 0.1% lovastatin for 4 days)
T1 sequence (Q02769 1-416): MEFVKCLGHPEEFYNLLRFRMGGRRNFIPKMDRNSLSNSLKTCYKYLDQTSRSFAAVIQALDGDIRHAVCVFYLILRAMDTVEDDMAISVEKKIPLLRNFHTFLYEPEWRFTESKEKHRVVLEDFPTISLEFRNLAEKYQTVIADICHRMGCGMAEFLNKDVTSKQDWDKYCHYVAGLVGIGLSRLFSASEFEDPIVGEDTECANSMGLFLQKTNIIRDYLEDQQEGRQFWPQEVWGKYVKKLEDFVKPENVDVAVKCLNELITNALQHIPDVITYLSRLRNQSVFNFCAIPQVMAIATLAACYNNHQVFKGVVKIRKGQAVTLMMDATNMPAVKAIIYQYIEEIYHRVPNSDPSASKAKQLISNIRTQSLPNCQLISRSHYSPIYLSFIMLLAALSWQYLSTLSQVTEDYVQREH
As to the kind of experiment: Squalene Synthase Assay (in vitro, rat liver microsomes). It counts as biochemical. The following applies: [4-14C]farnesyl pyrophosphate, 30° C., 20 minutes. Here is the method: The intrinsic squalene synthase inhibitory activity of representative compounds of this invention was measured by the standard ill vitro protocol described below:
Preparation of Rat Liver Microsomes
Male, CHARLES RIVER CD® rats (120 to 150 g) were fed a diet containing 0.1% lovastatin for 4 days. The livers from these rats were homogenized in 5 volumes (mL/g) of ice cold 50 mM HEPES (4-(2-hydroxyethyl)-1-piperazine-ethanesulfonic acid), 5 mM EDTA(ethylenediaminetetraacetic acid) pH 7.5 with a Potter-Elvehjem type tissue grinder. The homogenate was centrifuged twice at 20,000 × g for 15 min. at 4° C., discarding the pellet each time. The supernatant was then centrifuged at 100,000 × g for 1 hr at 4° C. The resulting microsomal pellet was resuspended in a volume of the above homogenizing buffer equal to one-fifth the volume of the original homoSenate. This microsomal preparation has a protein concentration of about 7 mg/mL. The microsomal suspensions were stored in aliquots at -70° C. Squalene synthase activity in these aliquots is stable for a least several months.
Partial Purification of Prenyl Transferase
Prenyl transferase was purified to use in the enzymatic synthesis of radiolabelled farnesyl pyrophosphate. […]
On the technique in general: Liver microsomes are vesicles of endoplasmic reticulum, rich in cytochrome P450 enzymes.

For the compound `CC[C@H](C)C(=O)O[C@H]1C[C@@H](C)C=C2C=C[C@H](C)[C@H](CC[C@@H]3C[C@@H](O)CC(=O)O3)[C@H]21` [lovastatin], in test [1], the “Inhibition of Ras farnesylation in vivo” value is reported as “Inhibition of Ras farnesylation in vivohas been demonstrated”. As for `CC[C@H](C)C(=O)O[C@H]1CCC=C2C=C[C@H](C)[C@H](CC[C@@H]3C[C@@H](O)CC(=O)O3)[C@H]21` [compactin], the “Inhibition of Ras farnesylation in vivo” value in test [1] is recorded as “Inhibition of Ras farnesylation in vivohas been demonstrated”. The term IC50 denotes the concentration that gives 50% inhibition. Low values mean higher potency, high ones lower potency. Compound `C=C(CCC12OC3C(=O)OC3(C(=O)O)C(C(=O)O)(O1)C(OC(=O)/C=C/C(C)CC(C)CC)C2O)C(OC(C)=O)C(C)Cc1ccccc1` (stereo not drawn) [Compound 1, IIA-β-Lactone] registered a half-inhibitory concentration (IC50) in test [2] of 0.4 nM.

The values are drawn from US5447717A, “Cholesterol-lowering agents” (Merck & Co., Inc., priority 1993, dated 1995).
